Results as given in the supplement of paper PMC8671470.
Structures can show the parent of a compound that is named as a salt.

Legend:
Experiment in all cases: cell viability (% survival relative to DMSO control); higher = less cytotoxic
Settings in all cases: 72 h
[1] = test system: myeloid leukemia patient primary cells Pat.9
Method in brief: (§1)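 Thawed mononuclear cells from AML or CML patients were purified on Ficoll and cultured for 72 h in RPMI 1640 with 10% FBS, at 10,000 cells/well, on 384-well plates carrying 70 pre-printed compounds at 1–10,000 nM in five tenfold steps, in duplicate. Viability came from CellTiter-Glo, normalised against DMSO and against 10 μM proteasome inhibitor. Any area under the curve given was derived from log-logistic curve fits in the drc and PharmacoGx R packages, and these fits had four parameters.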

[2] = test system: myeloid leukemia patient primary cells Pat.15
Method in brief: as §1

[3] = test system: myeloid leukemia patient primary cells Pat.7
Method in brief: as §1

[4] = test system: myeloid leukemia patient primary cells Pat.3
Method in brief: as §1

[5] = test system: myeloid leukemia patient primary cells Pat.12
Method in brief: as §1

[6] = test system: myeloid leukemia patient primary cells Pat.11
Method in brief: as §1

[7] = test system: myeloid leukemia patient primary cells Pat.4
Method in brief: as §1

[8] = test system: myeloid leukemia patient primary cells Pat.13
Method in brief: as §1

[9] = test system: myeloid leukemia patient primary cells Pat.6
Method in brief: as §1

[10] = test system: myeloid leukemia patient primary cells Pat.5
Method in brief: as §1

[11] = test system: myeloid leukemia patient primary cells Pat.1
Method in brief: as §1

[12] = test system: MV4-11
Description: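 8x8 drug-combination matrices (0–5000 nM; rosiglitazone and lestaurtinib 0–1000 nM) were run in MV4-11 cells for 72 h with CellTiter-Glo read-out. Survival is normalised to DMSO and 10 µM bortezomib and clipped at 100%.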

CCN(CC)C(=S)SSC(=S)N(CC)CC [Disulfiram]
cell viability [%]
Settings	1 nM	10 nM	100 nM	1000 nM	10000 nM
[1]	71.8	> 100	86.3	33.6	20.9
[2]	96.8	87.7	9.1	1.3	0.0644
[3]	83.4	86.8	61.1	71.7	< 0
[4]	> 100	99.2	99.7	84.6	1.56
[5]	98	95.2	54	3.19	< 0
[6]	99.9	99.2	98.7	2.1	3.25
[7]	94.9	90.7	96.1	0.934	6.79
[8]	94.8	91	79.5	< 0	4.12
[9]	99.6	94.6	80.5	2.26	4.13
[10]	76.6	76.8	74.5	26.1	5.84
[11]	95	82.2	79.8	1.11	0.116

c1cc(-c2cnn3cc(-c4ccc(OCCN5CCCCC5)cc4)cnc23)ccn1 [Dorsomorphin]
cell viability [%]
Settings	1 nM	10 nM	100 nM	1000 nM	10000 nM
[1]	41.6	> 100	11.5	41.3	18.7
[2]	88.3	90.6	95.6	92.5	24.9
[3]	25.4	95.4	65	89.5	30.9
[4]	64.7	99.1	67.9	86.3	34.1
[5]	98.5	97.1	98.5	92	91.6
[6]	95.2	> 100	90.4	79.8	43.8
[7]	86.7	91.5	90.1	56.8	35.9
[8]	88.2	94.5	64.7	50.7	48.6
[9]	84.6	> 100	73.2	83.4	72.5
[10]	3.45	81.3	5.46	1.33	10.2
[11]	76.7	93.2	78.1	65.8	27.8

CO[C@H]1C[C@@H]2CC[C@@H](C)[C@@](O)(O2)C(=O)C(=O)N2CCCC[C@H]2C(=O)O[C@H]([C@H](C)C[C@@H]2CC[C@@H](OCCO)[C@H](OC)C2)CC(=O)[C@H](C)/C=C(\C)[C@@H](O)[C@@H](OC)C(=O)[C@H](C)C[C@H](C)/C=C/C=C/C=C/1C [Everolimus]
cell viability [%]
Settings	1 nM	10 nM	100 nM	1000 nM	10000 nM
[1]	64.2	22.3	87.7	15.7	0.492
[2]	62.3	44.6	36.8	40	22.9
[3]	85	68.8	99.3	79.1	2.34
[4]	78.6	5.05	94.1	42.3	7.24
[5]	96.2	> 100	> 100	93.7	99
[6]	90.6	83.8	89.2	87.3	70.2
[7]	64.8	57.9	47	47.3	41.9
[8]	82.2	82.6	74.8	79.3	43.1
[9]	96.2	92.4	99.1	87.4	53.5
[10]	49.5	20.5	23	9.25	0.912
[11]	88.6	56.4	74	60.2	41.2

Cc1cc2c(C(C)C)c(O)c(O)c(C=O)c2c(O)c1-c1c(C)cc2c(C(C)C)c(O)c(O)c(C=O)c2c1O [Gossypol]
cell viability [%]
Settings	1 nM	10 nM	100 nM	1000 nM	10000 nM
[1]	63.1	7.88	22	6.35	28.7
[2]	98.2	85.9	89.7	95.7	27.3
[3]	72.1	28.8	60.8	< 0	< 0
[4]	96.5	28	70.6	< 0	3.08
[5]	98.6	94	88.1	99.1	50.5
[6]	98.5	98.9	91.9	84.6	11.6
[7]	84.4	90.7	77.1	81.5	8.19
[8]	87.8	69.7	83.6	75.4	15
[9]	99.8	80.8	84.4	83.7	20.9
[10]	98.7	6.75	22.8	5.84	93.9
[11]	82.1	92.5	92.2	78.8	14.3

CCn1c(=Cc2cccc[n+]2CC)sc(=C2Sc3ccccc3N2C)c1=O [MKT 077] + CN(C)CCNC(=O)c1cccn2c(=O)c3cc4ccccc4cc3nc12 [Bmh-21]
cell viability [%], [12]
Settings	drug1 concentration 5 nM	drug1 concentration 10 nM	drug1 concentration 50 nM	drug1 concentration 100 nM	drug1 concentration 500 nM	drug1 concentration 1000 nM	drug1 concentration 5000 nM
drug2 concentration 5 nM	89	81.4	> 100	87.9	90.8	> 100	78.7
drug2 concentration 10 nM	97.1	> 100	> 100	99.1	86	71	> 100
drug2 concentration 50 nM	86.2	86.7	88.4	> 100	84.5	> 100	> 100
drug2 concentration 100 nM	> 100	> 100	92.3	95.9	89.4	69.7	> 100
drug2 concentration 500 nM	70.6	88.8	78.3	87.8	> 100	86.7	84.5
drug2 concentration 1000 nM	87.2	46.6	> 100	89.9	74.8	60.5	64.2
drug2 concentration 5000 nM	31.1	35.2	31.4	63.2	25.9	24.1	37.5

CN(Cc1cnc2nc(N)nc(N)c2n1)c1ccc(C(=O)N[C@@H](CCC(=O)O)C(=O)O)cc1 [Methotrexate]
cell viability [%]
Settings	1 nM	10 nM	100 nM	1000 nM	10000 nM
[1]	51.4	92.2	25.9	6.38	0.492
[2]	95.4	89.3	> 100	80.5	91.1
[3]	94.1	89.1	56.6	15.2	34.5
[4]	46	95	40	10.9	5.65
[5]	> 100	98.1	97.4	87	97.3
[6]	96.2	98.4	97.3	81.7	95.5
[7]	88	87.6	70.2	73.6	95.8
[8]	96.4	88.3	82.7	58.2	88.5
[9]	99.7	95.8	97.1	67.7	92
[10]	98.7	50.1	57.6	< 0	46.4
[11]	99.6	> 100	87.7	72.5	92.6

CC(=O)Nc1nc(C)c(-c2ccc(Cl)c(S(=O)(=O)NCCO)c2)s1 [PIK93]
cell viability [%]
Settings	1 nM	10 nM	100 nM	1000 nM	10000 nM
[1]	68.9	0.773	23.7	24.5	5.28
[2]	83.6	92.9	65.4	9.62	2.38
[3]	61.6	< 0	63.4	64.1	22
[4]	46.7	24	70.6	59.3	15.4
[5]	94.1	92.3	95.9	88.3	79
[6]	96.6	85.4	88.7	54.6	32.4
[7]	97.3	87.1	72.2	10.6	6.67
[8]	91.2	35.4	61.6	54.3	14.4
[9]	91.8	35.2	87.8	72.1	40.8
[10]	57.4	2.24	1.33	17	1.33
[11]	83.9	67.2	62.5	22.1	12.1

CN(CCOc1ccc(Cc2sc(O)nc2O)cc1)c1ccccn1 [Rosiglitazone] + CC(C)(Cc1ccccc1)NCC(O)c1ccc(O)c(NS(C)(=O)=O)c1 [Zinterol hydrochloride]
cell viability [%], [12]
Settings	drug1 concentration 1 nM	drug1 concentration 5 nM	drug1 concentration 10 nM	drug1 concentration 50 nM	drug1 concentration 100 nM	drug1 concentration 500 nM	drug1 concentration 1000 nM
drug2 concentration 5 nM	> 100	97.6	93.9	77.8	> 100	> 100	> 100
drug2 concentration 10 nM	> 100	> 100	> 100	> 100	> 100	89.1	> 100
drug2 concentration 50 nM	97	96.9	91.9	> 100	> 100	94	> 100
drug2 concentration 100 nM	> 100	> 100	> 100	> 100	93	96.1	> 100
drug2 concentration 500 nM	99.9	> 100	98.7	> 100	> 100	87.2	98.8
drug2 concentration 1000 nM	> 100	70.6	96.2	> 100	91.6	95.1	> 100
drug2 concentration 5000 nM	95	> 100	98.5	> 100	> 100	> 100	> 100

CN(CCOc1ccc(Cc2sc(O)nc2O)cc1)c1ccccn1 [Rosiglitazone] + c1cc(-c2cnn3cc(-c4ccc(OCCN5CCCCC5)cc4)cnc23)ccn1 [Dorsomorphin]
cell viability [%], [12]
Settings	drug1 concentration 1 nM	drug1 concentration 5 nM	drug1 concentration 10 nM	drug1 concentration 50 nM	drug1 concentration 100 nM	drug1 concentration 500 nM	drug1 concentration 1000 nM
drug2 concentration 5 nM	96.5	> 100	> 100	98.4	> 100	> 100	> 100
drug2 concentration 10 nM	> 100	97.3	> 100	93.5	> 100	83.4	> 100
drug2 concentration 50 nM	> 100	98.2	> 100	> 100	84.9	> 100	> 100
drug2 concentration 100 nM	98.3	98.1	99.6	> 100	> 100	> 100	85.3
drug2 concentration 500 nM	99	45.9	46.8	45.7	49	13	43.8
drug2 concentration 1000 nM	26.1	20.7	21.6	23.8	7.5	23.4	16.8
drug2 concentration 5000 nM	2.86	4.57	4.91	7.17	6.15	6.58	5.32
